Data: the supplement of paper PMC11368000

Key:
Conditions in all cases: exposure time: 90 min
30171 = donor line of iPSC-derived cardiomyocytes; experiment: POD (EC05) for increase in Ca2+ transient decay-to-rise ratio (QT prolongation) vs vehicle; higher = less potent (higher point of departure)
Procedure: (§1)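 Human iPSC-derived cardiomyocytes from 16 donors were exposed for 90 min at 37 °C to each PFAS at 0.1, 1, 10 and 100 µM in 0.5% DMSO, 384-well plates. Kinetic Ca2+ flux (FLIPR) and Hoechst nuclei counts were normalised to vehicle wells and fitted with a hierarchical Bayesian Hill model to give donor-specific PODs: EC05 for beat-rate increase or decrease and for decay-to-rise ratio increase (QT proxy), EC95 for peak-frequency loss (asystole), EC10 for total cell number loss. 0.03 µM is the lower bound.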

1434 [1] = donor line of iPSC-derived cardiomyocytes; experiment: as above
Procedure: as §1

1392 [2] = donor line of iPSC-derived cardiomyocytes; experiment: as above
Procedure: as §1

1368 = donor line of iPSC-derived cardiomyocytes; experiment: as above
Procedure: as §1

1309 = donor line of iPSC-derived cardiomyocytes; experiment: as above
Procedure: as §1

30145 [3] = donor line of iPSC-derived cardiomyocytes; experiment: as above
Procedure: as §1

1083 [4] = donor line of iPSC-derived cardiomyocytes; experiment: as above
Procedure: as §1

1565 = donor line of iPSC-derived cardiomyocytes; experiment: as above
Procedure: as §1

20032 = donor line of iPSC-derived cardiomyocytes; experiment: as above
Procedure: as §1

20084 = donor line of iPSC-derived cardiomyocytes; experiment: as above
Procedure: as §1

1535 = donor line of iPSC-derived cardiomyocytes; experiment: as above
Procedure: as §1

1118 = donor line of iPSC-derived cardiomyocytes; experiment: as above
Procedure: as §1

11235 = donor line of iPSC-derived cardiomyocytes; experiment: as above
Procedure: as §1

1434 [5] = experiment: POD (EC05) for decrease in beat frequency (negative chronotrope) vs vehicle; higher = less potent (higher point of departure)
Procedure, shortened: (§2)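 A FLIPR Tetra recorded Ca2+ flux in dye-loaded human iPSC-derived cardiomyocytes from 16 donors before and after 90 min at 37 °C with 0.1, 1, 10 and 100 µM (final concentrations, 0.5% DMSO). Vehicle-normalised beat frequency, decay-to-rise ratio or peak frequency were fitted with hierarchical Bayesian Hill models to give donor-specific points of departure. The threshold was a 5% change, or for peak frequency a 95% loss.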

1392 [6] = experiment: as above
Procedure, shortened: as §2

1083 [7] = experiment: as above
Procedure, shortened: as §2

1531 = donor line of iPSC-derived cardiomyocytes; experiment: POD (EC05) for increase in Ca2+ transient decay-to-rise ratio (QT prolongation) vs vehicle; higher = less potent (higher point of departure)
Procedure: as §1

30145 [8] = experiment: POD (EC05) for increase in beat frequency (positive chronotrope) vs vehicle; higher = less potent (higher point of departure)
Procedure, shortened: as §2

1518 = donor line of iPSC-derived cardiomyocytes; experiment: POD (EC05) for increase in Ca2+ transient decay-to-rise ratio (QT prolongation) vs vehicle; higher = less potent (higher point of departure)
Procedure: as §1

1516 = donor line of iPSC-derived cardiomyocytes; experiment: as above
Procedure: as §1

SMILES | POD vs vehicle 30171 [µM] | POD vs vehicle 1434 [1] [µM] | POD vs vehicle 1392 [2] [µM] | POD vs vehicle 1368 [µM] | POD vs vehicle 1309 [µM] | POD vs vehicle 30145 [3] [µM] | POD vs vehicle 1083 [4] [µM] | POD vs vehicle 1565 [µM] | POD vs vehicle 20032 [µM] | POD vs vehicle 20084 [µM] | POD vs vehicle 1535 [µM] | POD vs vehicle 1118 [µM] | POD vs vehicle 11235 [µM] | POD vs vehicle 1434 [5] [µM] | POD vs vehicle 1392 [6] [µM] | POD vs vehicle 1083 [7] [µM] | POD vs vehicle 1531 [µM] | POD vs vehicle 30145 [8] [µM] | POD vs vehicle 1518 [µM] | POD vs vehicle 1516 [µM]
OCCC(F)(F)C(F)(F)C(F)(F)C(F)(F)F [4:2 Fluorotelomer alcohol] | > 100 | > 100 | > 100 | > 100 | > 100 | > 100 | > 100 | > 100 | > 100 | > 100 | > 100 | > 100 | > 100 | > 100 | > 100 | > 100 |  |  |  | 
NC(O)(C(F)(F)F)C(F)(F)F [2-Aminohexafluoropropan-2-ol] | > 100 | > 100 | > 100 | > 100 | > 100 | > 100 | > 100 | > 100 | > 100 | > 100 | > 100 | > 100 | > 100 | 85.7 | > 100 | > 100 | > 100 |  |  | 
O=C(O)C(F)(F)C(F)(F)C(F)(F)OC(F)(C(F)(F)F)C(F)(F)F [Perfluoro-4-isopropoxybutanoic_acid] | > 100 | > 100 | > 100 | > 100 | > 100 | > 100 | > 100 | > 100 | > 100 | > 100 | > 100 | > 100 | > 100 | > 100 | > 100 | > 100 |  | > 100 | > 100 | > 100
NC(=O)C(F)(F)C(F)(F)C(F)(F)C(F)(F)F [Nonafluoropentanamide] | > 100 | 0.357 | > 100 | > 100 | > 100 | > 100 | > 100 | > 100 | 0.52 | > 100 | > 100 | > 100 | > 100 | > 100 | > 100 | > 100 |  | > 100 | 0.612 | > 100
O=C(CC(=O)C(F)(F)C(F)(F)F)C(F)(F)F [3H,3H-Perfluoro-2,4-hexanedione] | > 100 | > 100 | > 100 | > 100 | > 100 | > 100 | > 100 | > 100 | > 100 | > 100 | > 100 | > 100 | > 100 | 22.6 | > 100 | > 100 |  | > 100 | > 100 | > 100
O=C(O)C(F)(F)OC(F)(F)C(F)(F)OC(F)(F)C(F)(F)OC(F)(F)C(F)(F)C(F)(F)C(F)(F)F [Perfluoro-3,6,9-trioxatridecanoic_acid] | > 100 | > 100 | > 100 | > 100 | > 100 | > 100 | > 100 | > 100 | > 100 | > 100 | > 100 | > 100 | > 100 | 22.8 | > 100 | 21.8 |  | > 100 | > 100 | 
O=C(O)C(F)(F)OC(F)(F)C(F)(F)OC(F)(F)C(=O)O [Perfluoro-3,6-dioxaoctane-1,8-dioic_acid] | > 100 | > 100 | > 100 | > 100 | > 100 | > 100 | > 100 | > 100 | > 100 | > 100 | > 100 | > 100 | > 100 | > 100 | > 100 | > 100 |  | > 100 | > 100 | > 100
O=C([O-])C(F)(F)C(F)(F)C(F)(F)C(F)(F)C(F)(F)C(F)(F)C(F)(F)F.[NH4+] [Ammonium_perfluorooctanoate] | > 100 | > 100 | > 100 | > 100 | > 100 | > 100 | > 100 | > 100 | > 100 | > 100 | > 100 | > 100 | > 100 | 46.1 | > 100 | > 100 |  |  |  | > 100
OCC(F)(F)C(F)(F)C(F)(F)C(F)F [1H,1H,5H-Perfluoropentanol] | > 100 | > 100 | > 100 | > 100 | > 100 | > 100 | > 100 | > 100 | > 100 | 5.77 | > 100 | > 100 | > 100 | > 100 | > 100 | > 100 |  | > 100 | 2.03 | 4.56
O=S(=O)(OCC(F)(F)F)C(F)(F)C(F)(F)C(F)(F)C(F)(F)F [2,2,2-Trifluoroethyl_perfluorobutanesulfonate] | > 100 | > 100 | > 100 | > 100 | > 100 | > 100 | > 100 | > 100 | > 100 | > 100 | > 100 | > 100 | > 100 | > 100 | > 100 | > 100 |  | > 100 |  | 
